From PubChem BioAssay AID192 (DTP/NCI, 2004)
Values joined by “and” are separate entries in the source; they are usually repeats but may differ in a detail not shown here. Equal entries are not always repeated. Toxic doses and inconclusive results are not listed.

Tested on: BDF1 mice, B16 melanoma ip, median survival T/C
Assay: NCI In Vivo Anticancer Drug Screen. Data for tumor model B16 Melanoma (intraperitoneal) in B6D2F1 (BDF1) mice
Conditions: endpoint: median survival time, higher = longer survival
How it was run: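 Survival or tumor size is measured after treatment of tumor-bearing mice and normalised to the vehicle-treated control group.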

[1] = dose: 12.5 mg/kg/injection, schedule: Q01DX009 (ip), vehicle: Klucel (hydroxypropylcellulose) (HPC)
[2] = dose: 25.0 mg/kg/injection, schedule: Q01DX009 (ip), vehicle: Klucel (hydroxypropylcellulose) (HPC)
[3] = dose: 50.0 mg/kg/injection, schedule: Q01DX009 (ip), vehicle: Klucel (hydroxypropylcellulose) (HPC)
[4] = dose: 25.0 mg/kg/injection, schedule: Q01DX009 (ip), vehicle: saline with Tween-80
[5] = dose: 50.0 mg/kg/injection, schedule: Q01DX009 (ip), vehicle: saline with Tween-80
[6] = dose: 12.5 mg/kg/injection, schedule: Q01DX009 (ip), vehicle: saline with Tween-80

`O=S(=O)(O)O` was tested, and the T/C (dose: 6.25 mg/kg/injection, schedule: Q01DX009 (ip), vehicle: Klucel (hydroxypropylcellulose) (HPC)) was 111 % of control, the T/C [1] was 106 % of control and the T/C [2] was 99 % of control. For the same molecule, the T/C [3] was 93 % of control.
In the case of `Cc1ccc(S(=O)(=O)N/N=C(\C(=O)O)c2ccccc2)cc1`, the T/C [1] is reported as 95 % of control, the T/C [2] is reported as 87 % of control and 88 % of control and the T/C [3] is reported as 91 % of control. For the same molecule, the T/C (dose: 100.0 mg/kg/injection, schedule: Q01DX009 (ip), vehicle: Klucel (hydroxypropylcellulose) (HPC)) was 89 % of control.
In the case of `Cc1n(CC(C)C)c2c([n+]1C)C(=O)c1ccccc1C2=O`, the T/C (dose: 1.0 mg/kg/injection, schedule: Q01DX009 (ip), vehicle: saline) is reported as 90 % of control and the T/C (dose: 2.0 mg/kg/injection, schedule: Q01DX009 (ip), vehicle: saline) is reported as 87 % of control.
In the case of `CC(=O)N(NC(C)C)C(C)C`, the T/C (dose: 6.25 mg/kg/injection, schedule: Q01DX009 (ip), vehicle: saline) is reported as 111 % of control, the T/C (dose: 12.5 mg/kg/injection, schedule: Q01DX009 (ip), vehicle: saline) is reported as 103 % of control and the T/C (dose: 25.0 mg/kg/injection, schedule: Q01DX009 (ip), vehicle: saline) is reported as 99 % of control. For the same molecule, the T/C (dose: 50.0 mg/kg/injection, schedule: Q01DX009 (ip), vehicle: saline) was 102 % of control.
For `CC(=O)NC1CCCCC1`, the T/C (dose: 33.0 mg/kg/injection, schedule: Q04DX003 (ip), vehicle: saline with Tween-80) was 100 % of control, the T/C (dose: 75.0 mg/kg/injection, schedule: Q04DX003 (ip), vehicle: saline with Tween-80) was 93 % of control and the T/C (dose: 100.0 mg/kg/injection, schedule: Q04DX003 (ip), vehicle: saline with Tween-80) was 150 % of control.
In the case of `c1ccc([B-]2([C+]3CCCCC3)N3CCCCC3C3CCCCN32)cc1` (centres undefined), the T/C [1] is reported as 106 % of control and the T/C [2] is reported as 93 % of control.
With `Cc1ccc(S(=O)(=O)Cl)cc1Cl` the T/C [4] was 108 % of control, the T/C [5] was 97 % of control and the T/C (dose: 100.0 mg/kg/injection, schedule: Q01DX009 (ip), vehicle: saline with Tween-80) was 86 % of control.
With `CC1([CH2][Hg][I])CS(=O)(=O)CC(C)([CH2][Hg][I])O1` (centres undefined) the T/C (dose: 1.25 mg/kg/injection, schedule: Q01DX009 (ip), vehicle: saline sonified) was 97 % of control, the T/C (dose: 2.0 mg/kg/injection, schedule: Q01DX009 (ip), vehicle: saline with Tween-80) was 100 % of control and the T/C (dose: 2.5 mg/kg/injection, schedule: Q01DX009 (ip), vehicle: saline sonified) was 92 % of control. For the same molecule, the T/C (dose: 4.0 mg/kg/injection, schedule: Q01DX009 (ip), vehicle: saline sonified) was 102 % of control, the T/C (dose: 4.0 mg/kg/injection, schedule: Q01DX009 (ip), vehicle: saline with Tween-80) was 94 % of control and the T/C (dose: 8.0 mg/kg/injection, schedule: Q01DX009 (ip), vehicle: saline sonified) was 95 % of control. For the same molecule, the T/C (dose: 8.0 mg/kg/injection, schedule: Q01DX009 (ip), vehicle: saline with Tween-80) was 100 % of control, the T/C (dose: 16.0 mg/kg/injection, schedule: Q01DX009 (ip), vehicle: saline sonified) was 90 % of control and the T/C (dose: 16.0 mg/kg/injection, schedule: Q01DX009 (ip), vehicle: saline with Tween-80) was 100 % of control. For the same molecule, the T/C (dose: 32.0 mg/kg/injection, schedule: Q01DX009 (ip), vehicle: saline with Tween-80) was 94 % of control.
For `NC(N)=Nc1ccc(C(=O)Oc2ccc([N+](=O)[O-])cc2Cl)cc1`, the T/C [6] was 97 % of control, the T/C [4] was 101 % of control and the T/C [5] was 93 % of control.
For `CCN(CCCCO)CCc1c[nH]c2ccc(OC)cc12`, the T/C (dose: 9.3 mg/kg/injection, schedule: Q01DX009 (ip), vehicle: saline) was 105 % of control, the T/C (dose: 18.75 mg/kg/injection, schedule: Q01DX009 (ip), vehicle: saline) was 90 % of control and the T/C (dose: 37.5 mg/kg/injection, schedule: Q01DX009 (ip), vehicle: saline) was 97 % of control. The T/C (dose: 75.0 mg/kg/injection, schedule: Q01DX009 (ip), vehicle: saline) was 110 % of control.
For `COP12(OCCO1)SC(C(F)(F)F)=C(C(F)(F)F)S2`, the T/C [6] was 100 % of control and the T/C [4] was 104 % of control.
`O=C(O)CCC1CCC(=O)OC1=O` (centres undefined) was tested, and the T/C (dose: 100.0 mg/kg/injection, schedule: Q01DX009 (ip), vehicle: saline) was 112 % of control, the T/C (dose: 200.0 mg/kg/injection, schedule: Q01DX009 (ip), vehicle: saline) was 113 % of control and the T/C (dose: 400.0 mg/kg/injection, schedule: Q01DX009 (ip), vehicle: saline) was 113 % of control.
